Experimental data taken from US8003649B2 (AstraZeneca AB, priority 2007, dated 2011).

target: T1, Androgen Receptor (AR) (Homo sapiens, UniProt P10275, T878A); test: LNCaP Androgen Receptor Down-regulation Cell Assay (immunofluorescence end point); assay type: cell-based; conditions: LNCaP prostate carcinoma cells, compound incubation 20-22 hours, 50% reduction of the AR signal; read-out: Androgen Receptor Down-regulation Assay (a) IC50/μM
T1 construct: cell based immuno-fluorescence assay using the LNCaP prostate epithelial cell line; endogenous in cells; host or cells: LNCaP clone FGC (ATCC CRL-1740)
T1 sequence (P10275 1-920 T878A): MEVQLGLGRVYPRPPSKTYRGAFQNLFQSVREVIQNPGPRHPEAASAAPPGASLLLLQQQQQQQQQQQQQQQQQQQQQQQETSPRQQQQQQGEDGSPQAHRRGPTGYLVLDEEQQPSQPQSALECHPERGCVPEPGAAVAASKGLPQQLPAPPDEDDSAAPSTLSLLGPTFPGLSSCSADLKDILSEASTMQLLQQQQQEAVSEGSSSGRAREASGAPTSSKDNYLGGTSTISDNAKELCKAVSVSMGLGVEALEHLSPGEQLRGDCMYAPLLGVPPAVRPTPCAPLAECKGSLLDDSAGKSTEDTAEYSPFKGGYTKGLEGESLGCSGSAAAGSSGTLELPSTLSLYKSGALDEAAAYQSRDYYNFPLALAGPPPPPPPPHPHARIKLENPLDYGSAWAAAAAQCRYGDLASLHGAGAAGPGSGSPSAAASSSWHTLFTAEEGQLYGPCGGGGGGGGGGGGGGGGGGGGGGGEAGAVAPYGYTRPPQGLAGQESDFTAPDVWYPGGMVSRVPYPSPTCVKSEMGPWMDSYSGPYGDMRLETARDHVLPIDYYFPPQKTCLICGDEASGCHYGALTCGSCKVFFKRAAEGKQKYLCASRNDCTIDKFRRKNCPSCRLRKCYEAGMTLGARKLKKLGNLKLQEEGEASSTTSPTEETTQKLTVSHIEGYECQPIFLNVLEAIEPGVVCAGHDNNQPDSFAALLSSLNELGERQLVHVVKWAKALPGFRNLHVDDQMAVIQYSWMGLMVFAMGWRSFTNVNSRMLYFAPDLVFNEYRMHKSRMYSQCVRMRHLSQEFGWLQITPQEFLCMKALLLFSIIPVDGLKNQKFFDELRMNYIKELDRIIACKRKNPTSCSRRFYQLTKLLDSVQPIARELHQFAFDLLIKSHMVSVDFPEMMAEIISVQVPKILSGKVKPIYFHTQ
Summary of the method: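 AR loss reported as IC50 from curve fits of fluorescence dose-response data, with AR immunostained and read by laser-scanning cytometry. Compound exposure was 20-22 h at 37° C in LNCaP cells grown in 5% charcoal-stripped FBS and plated overnight beforehand.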

`FC(F)(F)c1nnc2ccc(N3CCN(Cc4ccc(Oc5ccc(Cl)cc5)cc4)CC3)nn12` [Example 132, 6-[4-[[4-(4-chlorophenoxy)phenyl]methyl]piperazin-1-yl]-3-(trifluoromethyl)-[1,2,4]triazolo[4,3-b]pyridazine] and `CCCc1ccc(CN2CCN(c3ccc4nnc(C(F)(F)F)n4n3)CC2)cc1` [Example 158, 6-[4-[(4-propylphenyl)methyl]piperazin-1-yl]-3-(trifluoromethyl)-[1,2,4]triazolo[4,3-b]pyridazine] are within 1.5-fold of each other in DC50: 2.6 µM for the first, 3 µM for the second.

First: O=C(CCCN1CCCC1)Nc1ccc(C2CCN(c3ccc4nnc(C(F)(F)F)n4n3)CC2)cc1 [Example 667]
Second: COCCCC(=O)Nc1ccc(C2CCN(c3ccc4nnc(C(F)(F)F)n4n3)CC2)cc1 [Example 669]
The DC50 of the first is 1.7-fold higher: 1 µM for the first, 0.6 µM for the second.

Going from `N#Cc1ccc(OCC2CCN(c3ccc4nnc(C(F)(F)F)n4n3)CC2)cc1` [Example 474] to `N#Cc1ccc2[nH]cc(C3CCN(c4ccc5nnc(C(F)(F)F)n5n4)CC3)c2c1` [Example 495, 3-[1-[3-(trifluoromethyl)[1,2,4]triazolo[4,3-b]pyridazin-6-yl]piperidin-4-yl]-1H-indole-5-carbonitrile], the DC50 falls from 0.96 µM to 0.35 µM (2.7-fold).

Compared with `FC(F)(F)c1nnc2ccc(N3CC4CN(Cc5ccc(Cl)cc5)CC4C3)nn12` (stereo not drawn) [Example 204, 6-[2-[(4-chlorophenyl)methyl]-1,3,3a,4,6,6a-hexahydropyrrolo[3,4-c]pyrrol-5-yl]-3-(trifluoromethyl)-[1,2,4]triazolo[4,3-b]pyridazine], `COc1cncc(CN2CC3CN(c4ccc5nnc(C(F)(F)F)n5n4)CC3C2)c1` (stereo not drawn) [Example 797] is 1.6-fold higher in DC50: 1.5 µM for the first, 2.4 µM for the second.

First: N#Cc1cc(F)c(CN2CCN(c3ccc4nnc(C(F)(F)F)n4n3)CC2)c(F)c1 [Example 380]
Second: Fc1cc(F)cc(CN2CCN(c3ccc4nnc(C(F)(F)F)n4n3)CC2)c1 [Example 391]
The DC50 of the first is 1.6-fold higher: 4.2 µM for the first, 2.7 µM for the second.

First: FC(F)(F)c1cccc(CN2CCCN(c3ccc4nnc(C(F)(F)F)n4n3)CC2)c1 [Example 179, 3-(trifluoromethyl)-6-[4-[[3-(trifluoromethyl)phenyl]methyl]-1,4-diazepan-1-yl]-[1,2,4]triazolo[4,3-b]pyridazine]
Second: Fc1cccc(CN2CCN(c3ccc4nnc(C(F)(F)F)n4n3)CC2)c1 [Example 96, 6-[4-[(3-fluorophenyl)methyl]piperazin-1-yl]-3-(trifluoromethyl)-[1,2,4]triazolo[4,3-b]pyridazine]
The DC50 of the first is lower: 0.59 µM for the first, > 1.3 µM for the second.

Going from `FC(F)(F)c1cccc(OC2CCN(c3ccc4nnc(C(F)(F)F)n4n3)CC2)c1` [Example 626] to `FC(F)(F)c1cccc(O[C@@H]2CCN(c3ccc4nnc(C(F)(F)F)n4n3)C2)c1` [Example 583], the DC50 rises from 1.1 µM to 4.1 µM (3.7-fold).

`N#Cc1cc(CN2CCN(c3ccc4nnc(C(F)F)n4n3)CC2)ccc1F` [Example 260] and `Fc1ccc2[nH]cc(CN3CCN(c4ccc5nnc(C(F)F)n5n4)CC3)c2c1` [Example 290] are within 1.5-fold of each other in DC50: 5.6 µM for the first, 5.8 µM for the second.

`O=C(c1ccc(F)cc1)C1CCN(c2ccc3nnc(C(F)(F)F)n3n2)CC1` [Example 534] and `Fc1ccc(CCN2CCN(c3ccc4nnc(C(F)(F)F)n4n3)CC2)cc1` [Example 230] are within 1.5-fold of each other in DC50: 2.3 µM for the first, 2.1 µM for the second.

`Nc1cccc(C2CCN(c3ccc4nnc(C(F)(F)F)n4n3)CC2)c1` [Example 616, 3-[1-[3-(trifluoromethyl)[1,2,4]triazolo[4,3-b]pyridazin-6-yl]piperidin-4-yl]aniline] and `COc1cccc(C2CCN(c3ccc4nnc(C(F)(F)F)n4n3)CC2)c1` [Example 526] are within 1.5-fold of each other in DC50: 1.7 µM for the first, 2.5 µM for the second.

Going from `CN1CCN(C(=O)c2ccc(OC3CCN(c4ccc5nnc(C(F)(F)F)n5n4)CC3)cc2)CC1` [Example 414] to `O=C(c1ccc(OC2CCN(c3ccc4nnc(C(F)(F)F)n4n3)CC2)cc1)N1CCOCC1` [Example 420], the DC50 falls from > 10 µM to 5.9 µM.

First: FC(F)(F)c1nnc2ccc(N3CCC(Oc4ccc(OCCCN5CCNCC5)cc4)CC3)nn12 [Example 433]
Second: FC(F)(F)c1nnc2ccc(N3CCC(c4cccc(OCCN5CCNCC5)c4)CC3)nn12 [Example 672]
The DC50 of the first is 1.6-fold higher: 0.9 µM for the first, 0.58 µM for the second.

Compared with `O=C(NCCN1CCCC1)c1cccc(OC2CCN(c3ccc4nnc(C(F)(F)F)n4n3)CC2)c1` [Example 686], `CN1CCN(C(=O)c2cccc(C3CCN(c4ccc5nnc(C(F)(F)F)n5n4)CC3)c2)CC1` [Example 645] is 1.8-fold lower in DC50: 4.2 µM for the first, 2.3 µM for the second.

Compared with `FC(F)(F)c1nnc2ccc(N3CCN(CCc4ccccc4)CC3)nn12` [Example 23, 6-(4-phenethylpiperazin-1-yl)-3-(trifluoromethyl)-[1,2,4]triazolo[4,3-b]pyridazine], `FC(F)(F)c1nnc2ccc(N3CCN(Cc4cc[nH]c4)CC3)nn12` [Example 104, 6-[4-(1H-pyrrol-3-ylmethyl)piperazin-1-yl]-3-(trifluoromethyl)-[1,2,4]triazolo[4,3-b]pyridazine] is 21-fold higher in DC50: 0.45 µM for the first, 9.5 µM for the second.

First: FC(F)(F)c1nnc2ccc(N3CCC(COCC4CC4)CC3)nn12 [Example 295]
Second: FC(F)(F)c1nnc2ccc(N3CCC(Cc4cccnc4)CC3)nn12 [Example 539]
The DC50 of the first is 2.3-fold higher: 3.4 µM for the first, 1.5 µM for the second.

First: C[C@@H]1CN(c2ccc3nnc(C(F)(F)F)n3n2)CCN1Cc1cccnc1 [Example 564, 6-[(3R)-3-methyl-4-(pyridin-3-ylmethyl)piperazin-1-yl]-3-(trifluoromethyl)[1,2,4]triazolo[4,3-b]pyridazine]
Second: C[C@H]1CN(c2ccc3nnc(C(F)(F)F)n3n2)CCN1Cc1ccc(F)c(F)c1 [Example 572]
The DC50 of the first is 2-fold higher: 6.7 µM for the first, 3.4 µM for the second.

First: O=S(=O)(c1ccc2ccccc2c1)N1CCN(c2ccc3nnc(C(F)(F)F)n3n2)CC1 [Example 394, 6-[4-(naphthalen-2-ylsulfonyl)piperazin-1-yl]-3-(trifluoromethyl)[1,2,4]triazolo[4,3-b]pyridazine]
Second: CCCCOc1cccc(CN2CCN(c3ccc4nnc(C(F)(F)F)n4n3)CC2)c1 [Example 157, 6-[4-[(3-butoxyphenyl)methyl]piperazin-1-yl]-3-(trifluoromethyl)-[1,2,4]triazolo[4,3-b]pyridazine]
The DC50 of the first is 2.3-fold higher: 5.6 µM for the first, 2.4 µM for the second.

First: OC1(c2nccs2)CCN(c2ccc3nnc(C(F)(F)F)n3n2)CC1 [Example 324, 4-(1,3-thiazol-2-yl)-1-[3-(trifluoromethyl)[1,2,4]triazolo[4,3-b]pyridazin-6-yl]piperidin-4-ol]
Second: OC1(Cc2ccccc2)CCN(c2ccc3nnc(C(F)(F)F)n3n2)CC1 [Example 548]
The DC50 of the first is 2.7-fold higher: 5.9 µM for the first, 2.2 µM for the second.

Going from `FC(F)(Cl)c1nnc2ccc(N3CCN(Cc4ccsc4)CC3)nn12` [Example 357, 3-[chloro(difluoro)methyl]-6-[4-(thiophen-3-ylmethyl)piperazin-1-yl][1,2,4]triazolo[4,3-b]pyridazine] to `FC(F)(F)c1nnc2ccc(N3CCN(Cc4cnccc4Br)CC3)nn12` [Example 377], the DC50 rises from 2.1 µM to 5.9 µM (2.8-fold).

`COC(=O)c1ccccc1C1CCN(c2ccc3nnc(C(F)(F)F)n3n2)C1` (stereo not drawn) [Example 333] and `FC(F)(F)c1ccc(C2CCN(c3ccc4nnc(C(F)(F)F)n4n3)CC2)cc1` [Example 524] are within 1.5-fold of each other in DC50: 2.7 µM for the first, 3.2 µM for the second.

`Cc1cc(COc2cccc(OC3CCN(c4ccc5nnc(C(F)(F)F)n5n4)CC3)c2)no1` [Example 446] and `FC(F)(F)c1nnc2ccc(N3CCC(c4ccc(OCCn5cccn5)cc4)CC3)nn12` [Example 849, 6-[4-[4-[2-(1H-pyrazol-1-yl)ethoxy]phenyl]piperidin-1-yl]-3-(trifluoromethyl)[1,2,4]triazolo[4,3-b]pyridazine] are within 1.5-fold of each other in DC50: 0.7 µM for the first, 0.68 µM for the second.

First: CSc1nnc2ccc(N3CCN(C(c4ccccc4)c4ccccc4)CC3)nn12 [Example 9, 6-(4-benzhydrylpiperazin-1-yl)-3-methylsulfanyl-[1,2,4]triazolo[4,3-b]pyridazine]
Second: FC(F)(F)c1nnc2ccc(N3CCN(Cc4ccc(N5CCOCC5)nc4)CC3)nn12 [Example 143, 6-[4-[(6-morpholin-4-ylpyridin-3-yl)methyl]piperazin-1-yl]-3-(trifluoromethyl)-[1,2,4]triazolo[4,3-b]pyridazine]
The DC50 of the first is 5.2-fold lower: 1.7 µM for the first, 8.8 µM for the second.

Going from `Fc1ccc2[nH]cc(CN3CCN(c4ccc5nnc(C(F)(F)F)n5c4)CC3)c2c1` [Example 808] to `C[C@H]1CN(Cc2ccc(F)c(C#N)c2)CCN1c1ccc2nnc(C(F)(F)F)n2n1` [Example 598], the DC50 rises from 1 µM to 4.2 µM (4.2-fold).

Going from `CN1CCN(CCCOc2ccc(C3CCN(c4ccc5nnc(C(F)(F)F)n5n4)CC3)cc2)CC1` [Example 732] to `Fc1cccc(CN[C@H]2[C@@H]3CN(c4ccc5nnc(C(F)(F)F)n5n4)C[C@@H]32)c1` [Example 556], the DC50 rises from 1.1 µM to 4.4 µM (4-fold).
